{"source": "paper PMC4674085", "about": "“Towards Prebiotic Catalytic Amyloids Using High Throughput Screening” (PLoS ONE, 2015)", "experiment": "Aggregation at pH 4 from soluble material left after 100,000 g centrifugation", "type": "physicochemical", "details": "40 μM purified peptide, pH 4, soluble material in supernatant of 100,000 g centrifugation"}
{"substance": "Ac-YVHVHVDV-NH2 [Peptide 21, Ac-YVHVHVDV-CONH2]", "values": [{"measurement": "aggregation behaviour at pH 4", "result": "remained soluble for several days"}]}
